# Test results taken from patent US20030199671A1, “Binding molecules for Fc-region polypeptides” (priority 2001, published 2003).
# Legend:
# human plasma IgG1 = target: T1, human plasma IgG1 (Homo sapiens, UniProt P01857); test: Fluorescence anisotropy binding, fluorescein-labeled peptide
# T1 construct: the individual human plasma IgG isoforms: IgG1, IgG2, IgG3, or IgG4; purchased Calbiochem; host or cells: human plasma
# Protocol: (§1) All measurements were performed in 384 well microplates with 20 nM fluorescein-labeled peptide and various concentrations of the IgG isoform in a volume of between 10 and 20 μl using a Tecan Polarion fluorescence polarization plate reader. All binding buffers included 0.01% (v/v) Tween 20 to prevent peptide adsorption to the microplate. The binding mixture was equilibrated for 10 minutes in the microplate at 30° C. prior to performing the measurement.
# (§2) Peptides were synthesized, fluorescein-labeled and HPLC purified as described above. Binding studies were performed using either a mixture of human plasma IgG isoforms (the Fc protein) or the individual human plasma IgG isoforms: IgG1, IgG2, IgG3, or IgG4.
# (§3) Measurements were performed in 384-well microplates with 2 nM fluorescein-labeled peptide and a varied concentration of the IgG isoform target in a volume of 10 μl using a Tecan Polarion fluorescence polarization plate reader. The Fc binding buffer was 50 mM Tris-HCl, 200 mM NaCl, pH 8.0, 0.01% Tween 20. The IgG binding buffer was PBS with 0.01% Tween 20. The binding mixtures were equilibrated for 10 minutes in the microplate at 30° C. prior to performing the measurements.
# human plasma IgG2 = target: T2, human plasma IgG2 (Homo sapiens, UniProt P01859); test: as above
# T2 construct: the individual human plasma IgG isoforms: IgG1, IgG2, IgG3, or IgG4; purchased Calbiochem; host or cells: human plasma
# Protocol: as §1, §2, §3
# human IgG2 = target: T3, human IgG2 (Homo sapiens, UniProt P01859); type: binding; conditions: Table 9; immobilized peptide, 5.0 mg/ml resin load
# T3 construct: all human subtypes derived from myeloma patients; purchased Calbiochem 400122; host or cells: myeloma patients
# In short: (§4)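 Read-out is A280 of unbound IgG (1.4 mg/ml extinction coefficient), with percent bound derived against non-filtered or negative controls. Targets were incubated with immobilized peptides in PBST or TBST for 1-1.5 h at room temperature. Hydrolyzed Sepharose and immobilized Protein A serve as negative and positive controls.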
# human IgG1 = target: T4, human IgG1 (Homo sapiens, UniProt P01857); type: binding; conditions: Table 9; immobilized peptide, 5.0 mg/ml resin load
# T4 construct: all human subtypes derived from myeloma patients; purchased Calbiochem 400120; host or cells: myeloma patients
# In short: (§5)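 Percent bound = control mass minus unbound mass, with unbound IgG read at A280 after 1–1.5 h room-temperature incubation with the peptide resin in PBST pH 7.2 or TBST pH 7.5. Bound IgG was eluted 30–60 min with 0.1 M citrate pH 4.0 and/or bicarbonate pH 8.5. Recovery is given as percent of total load.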
# bovine IgG = type: binding; conditions: Table 11; unfractionated IgG
# In short: (§6)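 Steps: dilute IgG in PBST or TBST; incubate with immobilized peptide 1-1.5 h, RT; collect unbound by centrifugation; measure A280; wash three times; elute with 0.1 M sodium bicarbonate pH 8.5 and/or 0.1 M sodium citrate pH 4.0 for 30-60 min and quantitate.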
# human IgG = type: binding; conditions: Table 11; unfractionated IgG
# In short: as §6
# mouse IgG = type: binding; conditions: Table 11; unfractionated IgG
# In short: as §6
# goat IgG = type: binding; conditions: Table 11; unfractionated IgG
# In short: as §6
# IgG4 [1] = target: T5, IgG4 (Homo sapiens, UniProt P01861); type: binding; design: all human subtypes derived from myeloma patients; purchased Calbiochem 400126; host or cells: myeloma patients; conditions: Table 9; immobilized peptide, 5.0 mg/ml resin load
# In short: as §4
# human plasma IgG3 = target: T6, human plasma IgG3 (Homo sapiens, UniProt P01860); test: Fluorescence anisotropy binding, fluorescein-labeled peptide
# T6 construct: the individual human plasma IgG isoforms: IgG1, IgG2, IgG3, or IgG4; purchased Calbiochem; host or cells: human plasma
# Protocol: (§7) Peptides were synthesized by BACHEM Bioscience, Inc., (King of Prussia, Pa.), fluorescein labeled and purified by HPLC. Binding studies were performed using either a mixture of human plasma IgG isoforms (the Fc target) or the individual human plasma IgG isoforms: IgG1, IgG2, IgG3, or IgG4. All Fc target proteins were obtained from Calbiochem.
# as §1, §2, §3
# [2] = target: Fc (mixture of human plasma IgG isoforms); test: as above; conditions: pH 8.0, 0.05 M Tris-HCl, 0.2 M NaCl
# Protocol: as §7, §1, §2, §3
# human plasma IgG4 = target: T7, human plasma IgG4 (Homo sapiens, UniProt P01861); test: as above
# T7 construct: the individual human plasma IgG isoforms: IgG1, IgG2, IgG3, or IgG4; purchased Calbiochem; host or cells: human plasma
# Protocol: as §7, §1, §2, §3
# IgG3 [3] = target: T8, IgG3 (Homo sapiens, UniProt P01860); test: Competition between synthetic peptides and Protein A for Fc binding; design: the individual human plasma IgG isoforms: IgG1, IgG2, IgG3, or IgG4; purchased Calbiochem; host or cells: human plasma; key: NB: no detected binding.; ?: partial decrease in anisotropy with added competitor; conditions: 5 mg/ml protein A
# Protocol: (§8) Cross-competition studies between peptides were performed using 20 nM fluorescein-labeled peptide and 1-2 μM IgG1, IgG2, IgG3, or IgG4 in the presence and absence of a maximum of 100 μM unlabeled peptide or 5 mg/ml protein A.
# (§9) This is consistent with the fact that Protein A is known not to bind human IgG3.
# IgG4 [4] = target: T5, IgG4; test: as above; design: the individual human plasma IgG isoforms: IgG1, IgG2, IgG3, or IgG4; purchased Calbiochem; host or cells: human plasma; key: NB: no detected binding.; ?: partial decrease in anisotropy with added competitor; conditions: 5 mg/ml protein A
# Protocol: as §8, §9
# IgG3 [5] = target: T8, IgG3; type: binding; design: all human subtypes derived from myeloma patients; purchased Calbiochem 400124; host or cells: myeloma patients; conditions: Table 9; immobilized peptide, 5.0 mg/ml resin load
# In short: as §5
# [6] = pH 9.3, 0.01 M sodium bicarbonate
compound,measurement,setting,value
CC(=O)N[C@@H](C)C(=O)NCC(=O)N[C@@H](Cc1ccc(O)cc1)C(=O)N[C@@H](Cc1ccc(O)cc1)C(=O)N[C@@H](Cc1c[nH]c2ccccc12)C(=O)N[C@H]1CSSC[C@@H](C(=O)N2CCC[C@H]2C(=O)N[C@@H](CC(=O)O)C(=O)N[C@@H](CCC(N)=O)C(=O)NCC(=O)N[C@H](C(=O)N2CCC[C@H]2C(=O)NCC(=O)N2CCC[C@H]2C(=O)N[C@@H](CCC(=O)O)C(=O)NCC(=O)NCC(=O)NCC(=O)N[C@@H](CCCCN)C(N)=O)[C@@H](C)O)NC(=O)[C@H](CC(C)C)NC(=O)CNC(=O)[C@H](Cc2c[nH]c3ccccc23)NC(=O)[C@H](Cc2ccc(O)cc2)NC(=O)[C@H](CC(N)=O)NC1=O [DX254],Kd,"human plasma IgG1; pH 5.7, 0.01 M Tris-acetate, 0 M NaCl",< 0.1 µM
same,Kd,"human plasma IgG1; pH 7.4, 0.01 M Tris-HCl",< 2 µM
same,Kd,"human plasma IgG1; pH 7.4, PBS, […] NaCl",0.4 ± 0.2 µM
same,Kd,human plasma IgG1; [6],0.4 ± 0.4 µM
same,Kd,"human plasma IgG2; pH 5.7, 0.01 M Tris-acetate",> 1 µM
same,Kd,"human plasma IgG2; pH 7.4, 0.01 M Tris-HCl",2 ± 0.7 µM
same,Kd,"human plasma IgG2; pH 7.4, PBS, […] NaCl",1.1 ± 0.3 µM
same,Kd,human plasma IgG2; [6],2 ± 2.7 µM
same,"% IgG Capture - Batch Binding, Human IgG2",human IgG2,16%
same,"% IgG Capture - Batch Binding, Human IgG1",human IgG1,28%
same,"% IgG Capture - Batch Binding, Bovine IgG",bovine IgG,0%
same,"% IgG Capture - Batch Binding, Human IgG",human IgG,16%
same,"% IgG Capture - Batch Binding, Mouse IgG",mouse IgG,2%
same,"% IgG Capture - Batch Binding, Goat IgG",goat IgG,0%
same,"% IgG Capture - Batch Binding, Human IgG4",IgG4 [1],6%
same,Kd,"human plasma IgG3; pH 5.7, 0.01 M Tris-acetate",0.3 ± 0.3 µM
same,Kd,"human plasma IgG3; pH 7.4, 0.01 M Tris-HCl",> 10 µM
same,Kd,human plasma IgG3; [6],> 10 µM
same,Kd,[2],1.6 ± 0.6 µM
same,Kd,"human plasma IgG4; pH 5.7, 0.01 M Tris-acetate",> 10 µM
same,Kd,"human plasma IgG4; pH 7.4, PBS, […] NaCl",> 10 µM
same,Kd,human plasma IgG4; [6],> 10 µM
same,"Competition between labeled peptide and Protein A, IgG3",IgG3 [3],?
same,"Competition between labeled peptide and Protein A, IgG4",IgG4 [4],NB
same,"% IgG Capture - Batch Binding, Human IgG3",IgG3 [5],36%
